# Laboratory results as given in US10899747B2, “Biaryl piperidine amide compounds and methods of use thereof” (Athenex, Inc., priority 2017, dated 2021).
# Key:
# Assay type in all cases: cell-based
# IL-2 [1] = assay: PHA-IL2 (cell activation and cytokine analysis); conditions: 50% inhibition concentration class
# Method in brief: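 Cells were seeded in 96-well plates at 1.0-2.0×10^6 cells/ml in 150 ul of RPMI containing 0.5% fetal calf serum. Test compounds, at up to ≤20 uM, were preincubated with the cells for 30 minutes, then phytohemagglutinin (PHA) was added and cultures were stimulated for 24-48 hours at 37 degrees C./5% CO2. Supernatant IL-2 was then quantified by standard ELISA.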
# NFAT = assay: NFAT-dependent Firefly luciferase reporter assay in Jurkat T cells stimulated with PMA and ionomycin; conditions: Homo sapiens, PMA and ionomycin for 6 hours, read-out: concentration required to achieve 50% inhibition (IC50) of NFAT-dependent luciferase activity
# Experimental: Jurkat T cells were transiently transfected with a DNA plasmid encoding Firefly luciferase under the transcriptional control of an appropriate regulatory element that may include multimerized NFAT, AP-1, NFκB, or CREB binding sites. Cells were co-transfected with a DNA plasmid encoding Renilla luciferase under the transcriptional control of a constitutive regulatory element (e.g., HSV-TK promoter). 24 hours following transfection, cells were collected and re-seeded in 96-well plates at a final density of 1.0×10^6 cells/ml in 150 ul assay medium. Compound 413 was included at a final concentration of ≤20 uM and pre-incubated with cells for 30 minutes prior to stimulation. […] Cells were then lysed and the level of Firefly luciferase and Renilla Luciferase activity was determined using a standard assay (e.g., Promega's Dual Luciferase Reporter Assay System) and plate-reading luminometer. The ratio obtained by dividing activation induced Firefly luciferase activity by the constitutive Renilla luciferase activity was calculated and used as a quantitative measurement of cell activation.
# More specifically, Jurkat T cells were co-transfected with a NFAT-dependent Firefly Luciferase reporter plasmid and a control Renilla Luciferase reporter plasmid. […] Lysates were prepared and analyzed for luciferase activity using the Dual Luciferase Reporter Assay System (Promega). […]
# IL-2 [2] = assay: IL-2 secretion by ELISA in Jurkat T cells stimulated with PMA and ionomycin; conditions: Homo sapiens, supernatants harvested at 20 hours, read-out: concentration required to achieve 50% inhibition (IC50) of IL-2
# Experimental: Jurkat (a transformed human T cell leukemia) cells were plated in 96-well plates at a final density of 1.0-2.0×10^6 cells/ml in 150 ul of assay medium (RPMI+0.5% fetal calf serum). Compounds 403 and 413 were included at a final concentration of ≤20 uM and pre-incubated with cells for 30 minutes prior to stimulation. Mitogens PMA and ionomycin were added to the T cell receptor (TCR) complex (e.g., anti-CD3c) and CD28. Cell cultures were stimulated for 24-48 hours in a humidified incubator (37 degrees C./5% CO2). A fraction of the culture supernatant was then harvested from each well and assayed for the presence of appropriate cytokine using standard ELISA. Cytokines analyzed was IL-2. If required, the number of cytokine producing cells can be determined using intracellular staining and flow cytometry.
# More specifically, Jurkat T cells were stimulated with the mitogens PMA and ionomycin in the presence of varying concentrations of compound 403 or compound 413. Supernatants were harvested at 20 hours and analyzed for IL-2 content by ELISA. IL-2 values obtained from vehicle (DMSO) treated control wells (˜2800 pg/ml) were assigned a value of 100% and used to calculate the % inhibition achieved for each compound.
compound,measurement,setting,value
CC(C)Oc1cccc(CCC2CCN(C(=O)COc3ccc(C#N)cc3-c3ccc(C#N)cc3)CC2)c1 [Compound 413],IC50,IL-2 [1],< 1000 nM
same,IC50,NFAT,9 nM
same,IC50,IL-2 [2],18 nM
